This series in a line: Percent Diclofenac Sodium in Suspension (dependence on concentration and pH). As to conditions: below a pH of about 6.8; formulation containing 1% diclofenac sodium. The format is physicochemical. An excerpt: The solubility of non-steroidal anti-inflammatory agents is pH dependent, i.e., normally the higher the pH, the higher the solubility of the drug in the formulation. […] Formulating the composition as a suspension rather than as a solution inhibits immediate contact between the drug and tissues of the eye and in that way reduces the stinging and burning sensation experienced when a solution of such drugs places all of the drug in immediate contact with the ocular tissues.
Thus, by providing at least some of the diclofenac in suspension, via pH control, lower transient burning and stinging would be observed when administered to patients.

In the case of `O=C(O)Cc1ccccc1Nc1c(Cl)cccc1Cl` [Diclofenac Sodium, sodium ortho-(2,6-dichlorophenyl)aminophenylacetate acid], the “diclofenac in suspension (in words)” value is given as “virtually all of the diclofenac in suspension”.
